Assay results taken from patent US7223781B2 (Beiersdorf AG, priority 2001, dated 2007).
Read-outs that look alike come from different tables or passages of the source.

Biological target: T1, COX-1 (Sus scrofa, UniProt A0A287ANF9)
T1 construct: A platelet suspension obtained from pig's blood is preincubated with the test substance; endogenous in cells; host or cells: platelets from pig's blood
Experiment: In-vitro test for COX-1 inhibition: fluorimetric quantification of malonaldehyde (MDA) in A23187-activated pig platelet suspension
Format: cell-based
Conditions: pig platelets
Experimental: In-vitro Test Procedure for the Determination of COX-1 Inhibition
The inhibition of the cyclooxygenase pathway is carried out by fluorimetric quantification of malonaldehyde (MA). This condenses in the acidic medium with twice the molar amount of thiobarbituric acid to give a red pigment dye, which has a fluorescence at λExcitation: 533 nm, λEmission: 550 nm.
A platelet suspension obtained from pig's blood is preincubated with the test substance for 10 min at 37° C. The concentration of the suspension should be 8×10^8 cells/ml. The arachidonic acid cascade is then activated by addition of the antibiotic calcium ionophore A23187 ([…]). After a further 10 min at 37° C., the reaction is stopped using a trichloroacetic acid solution. The samples are centrifuged and the supernatant is incubated with thiobarbituric acid for 30 min at 70° C. After cooling (30 min at room temperature), the samples are measured fluorimetrically at 533/550 nm and the IC50 values of the test compounds are determined therefrom by means of a calibration curve.

[1] = Table 1, carbamic acid thioesters, read-out: MDA pIC50 (converted)
[2] = Table 2, sulfanylacetamides, read-out: MDA pIC50 (converted)
[3] = Table 8, arylsulfonamides, read-out: MDA IC50
[4] = Table 7, arylamides, read-out: MDA IC50
[5] = Table 7, arylamides, read-out: MDA pIC50 (converted)

T1 sequence (A0A287ANF9 25-600): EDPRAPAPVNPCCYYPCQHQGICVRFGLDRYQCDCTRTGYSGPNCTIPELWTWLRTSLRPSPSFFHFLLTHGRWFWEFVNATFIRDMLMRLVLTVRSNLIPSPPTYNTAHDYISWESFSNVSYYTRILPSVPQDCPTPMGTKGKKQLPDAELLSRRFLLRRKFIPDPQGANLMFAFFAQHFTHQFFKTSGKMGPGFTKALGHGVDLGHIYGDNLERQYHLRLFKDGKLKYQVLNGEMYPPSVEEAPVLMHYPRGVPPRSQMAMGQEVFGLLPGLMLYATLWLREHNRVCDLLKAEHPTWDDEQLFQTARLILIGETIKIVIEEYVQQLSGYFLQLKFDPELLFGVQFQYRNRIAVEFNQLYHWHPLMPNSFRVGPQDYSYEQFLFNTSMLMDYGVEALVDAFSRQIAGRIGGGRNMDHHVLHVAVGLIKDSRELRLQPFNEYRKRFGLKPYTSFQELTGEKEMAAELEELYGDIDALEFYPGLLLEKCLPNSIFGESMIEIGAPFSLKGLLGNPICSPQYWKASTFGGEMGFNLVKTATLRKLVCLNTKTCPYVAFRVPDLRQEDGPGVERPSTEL

COc1ccc(-c2nc(SC(=O)N(C)C)[nH]c2-c2ccc(OC)cc2)cc1 [Compound T1, [4,5-Bis(4-methoxyphenyl)-1H-imidazol-2-yl]-N,N-dimethylcarbamic acid thioester]
IC50 (Table 1, carbamic acid thioesters, read-out: MDA IC50): 0.071 µM

COc1ccc(-c2nc(SC(=O)N(C(C)C)C(C)C)[nH]c2-c2ccc(OC)cc2)cc1 [Compound T3, [4,5-Bis(4-methoxyphenyl)-1H-imidazol-2-yl]-N,N-diisopropylcarbamic acid thioester]
IC50 [1]: 0.012 µM

COc1ccc(-c2nc(SC(=O)N3CCOCC3)[nH]c2-c2ccc(OC)cc2)cc1 [Compound T4, [4,5-Bis(4-methoxyphenyl)-1H-imidazol-2-yl]-morpholine-4-carbamic acid thioester]
IC50 [1]: 0.0282 µM

COc1ccc(-c2nc(SCC(N)=O)[nH]c2-c2ccc(OC)cc2)cc1 [Compound T5, 2-[4,5-bis(4-methoxyphenyl)-1H-imidazol-2-ylsulfanyl]-acetamide]
IC50 (Table 2, sulfanylacetamides, read-out: MDA IC50): 0.45 µM

COc1ccc(-c2nc(SCC(=O)Nc3ccccc3)[nH]c2-c2ccc(OC)cc2)cc1 [Compound T9, N^1-Phenyl-2-[4,5-bis(4-methoxyphenyl)-1H-imidazol-2-ylsufanyl]acetamide]
IC50 [2]: 0.0347 µM

COc1ccc(-c2nc(SCC(=O)Nc3ccc(Cl)cc3)[nH]c2-c2ccc(OC)cc2)cc1 [Compound T10, N^1-(4-Chlorophenyl)-2-[4,5-bis(4-methoxyphenyl)-1H-imidazol-2-yl-sufanyl]acetamide]
IC50 [2]: 0.209 µM

COc1ccc(-c2nc(SCC(=O)c3ccc(Cl)cc3)[nH]c2-c2ccc(OC)cc2)cc1 [Compound T12]
IC50 (Table 4, aryl ketones, read-out: MDA IC50): 0.046 µM

COc1ccc(-c2nc(SCCC(=O)c3ccccc3)[nH]c2-c2ccc(OC)cc2)cc1 [Compound T13, 3-[4,5-Bis(4-methoxyphenyl)-1H-imidazol-2-ylsufanyl]-1-phenylpropan-1-one]
IC50 (Table 4, aryl ketones, read-out: MDA pIC50 (converted)): 0.0209 µM

COc1ccc(-c2nc(SCCN(C)C)[nH]c2-c2ccc(OC)cc2)cc1 [Compound T14, N,N-Dimethyl-[4,5-bis(4-methoxyphenyl)-1H-imidazol-2-ylsulfanyl]-ethanamine]
MDA pIC50 (Table 3, amines): 5.49 M
IC50 (Table 3, amines, read-out: MDA IC50): 3.2 µM

COc1ccc(-c2nc(SCCN)[nH]c2-c2ccc(OC)cc2)cc1 [Compound T15, 2-[4,5-Bis(4-methoxyphenyl)-1H-imidazol-2-ylsufanyl]ethanamine]
IC50 (Table 3, amines, read-out: MDA pIC50 (converted)): 0.776 µM

COc1ccc(-c2nc(SCCNS(=O)(=O)c3ccccc3)[nH]c2-c2ccc(OC)cc2)cc1 [Compound T17, N^1-{2-[4,5-Bis(4-methoxyphenyl)-1H-imidazol-2-ylsufanyl]ethyl}benzene-sulfonamide]
IC50 [3]: 0.05 µM

COc1ccc(-c2nc(SCCN(C)S(=O)(=O)c3ccc(Cl)cc3)n(C)c2-c2ccc(OC)cc2)cc1 [Compound T19, N^1-{2-[4,5-Bis(4-methoxyphenyl)-1-methyl-1H-imidazol-2-ylsufanyl]-ethyl}-N-1-methyl-4-chlorobenzenesulfonamide]
IC50 (Table 16, dimethyl compounds, read-out: MDA pIC50 (converted)): 0.0692 µM

COc1ccc(-c2nc(SCCNS(=O)(=O)c3ccc(F)cc3)[nH]c2-c2ccc(OC)cc2)cc1 [Compound T20, N^1-{2-[4,5-Bis(4-methoxyphenyl)-1H-imidazol-2-ylsufanyl]ethyl}-4-fluorobenzenesulfonamide]
IC50 [3]: 0.06 µM

COc1ccc(-c2nc(SCCNS(=O)(=O)c3ccc([N+](=O)[O-])cc3)[nH]c2-c2ccc(OC)cc2)cc1 [Compound T21, N^1-{2-[4,5-Bis(4-methoxyphenyl)-1H-imidazol-2-ylsufanyl]ethyl}-4-nitro-benzenesulfonamide]
MDA pIC50 (Table 8, arylsulfonamides): 6.96 M
IC50 [3]: 0.11 µM

COc1ccc(-c2nc(SCCNS(=O)(=O)c3ccc(C)cc3)[nH]c2-c2ccc(OC)cc2)cc1 [Compound T24, N^1-{2-[4,5-Bis(4-methoxyphenyl)-1H-imidazol-2-ylsufanyl]ethyl}-4-methylbenzenesulfonamide]
IC50 [3]: 0.048 µM

COc1ccc(-c2nc(SCCNS(=O)(=O)c3c(C)cc(C)cc3C)[nH]c2-c2ccc(OC)cc2)cc1 [Compound T25, N^1-{2-[4,5-Bis(4-methoxyphenyl)-1H-imidazol-2-ylsufanyl]ethyl}-2,4,6-trimethylbenzenesulfonamide]
IC50 (Table 8, arylsulfonamides, read-out: MDA pIC50 (converted)): 0.324 µM

COc1ccc(-c2nc(SCCNS(=O)(=O)c3ccc(C(C)(C)C)cc3)[nH]c2-c2ccc(OC)cc2)cc1 [Compound T26, N^1-{2-[4,5-Bis(4-methoxyphenyl)-1H-imidazol-2-ylsufanyl]ethyl}-4-(tert-butyl)benzenesulfonamide]
IC50 [3]: 0.49 µM

COc1ccc(-c2nc(SCCNC(=O)c3ccccc3)[nH]c2-c2ccc(OC)cc2)cc1 [Compound T28, N^1-{2-[4,5-Bis(4-methoxyphenyl)-1H-imidazol-2-ylsufanyl]ethyl}benzamide]
IC50 [4]: 0.54 µM

COc1ccc(-c2nc(SCCNC(=O)c3ccccc3)n(C)c2-c2ccc(OC)cc2)cc1 [Compound T30, N^1-{2-[4,5-Bis(4-methoxyphenyl)-1-methyl-1H-imidazol-2-ylsufanyl]-ethyl}benzamide]
IC50 (Table 17, methyl derivatives, read-out: MDA pIC50 (converted)): 0.0417 µM

COc1ccc(-c2nc(SCCNC(=O)c3ccc(Cl)cc3)[nH]c2-c2ccc(OC)cc2)cc1 [Compound T32, N^1-{2-[4,5-Bis(4-methoxyphenyl)-1H-imidazol-2-ylsufanyl]ethyl}-4-chlorobenzamide]
IC50 [5]: 0.251 µM

COc1ccc(-c2nc(SCCNC(=O)c3cccc(Cl)c3)[nH]c2-c2ccc(OC)cc2)cc1 [Compound T33, N^1-{2-[4,5-Bis(4-methoxyphenyl)-1H-imidazol-2-ylsufanyl]ethyl}-3-chlorobenzamide]
MDA pIC50 (Table 7, arylamides): 6.03 M
IC50 [4]: 0.93 µM

COc1ccc(-c2nc(SCCNC(=O)c3ccccc3Cl)[nH]c2-c2ccc(OC)cc2)cc1 [Compound T34, N^1-{2-[4,5-Bis(4-methoxyphenyl)-1H-imidazol-2-ylsufanyl]ethyl}-2-chlorobenzamide]
IC50 [4]: 0.062 µM

COc1ccc(-c2nc(SCCNC(=O)c3ccc(Cl)cc3Cl)[nH]c2-c2ccc(OC)cc2)cc1 [Compound T35, N^1-{2-[4,5-Bis(4-methoxyphenyl)-1H-imidazol-2-ylsufanyl]ethyl}-2,4-dichlorobenzamide]
IC50 [5]: 0.151 µM

COc1ccc(-c2nc(SCCNC(=O)c3c(Cl)cccc3Cl)[nH]c2-c2ccc(OC)cc2)cc1 [Compound T36, N^1-{2-[4,5-Bis(4-methoxyphenyl)-1H-imidazol-2-ylsufanyl]ethyl}-2,6-dichlorobenzamide]
IC50 [5]: 0.11 µM

COc1ccc(-c2nc(SCCNC(=O)c3cc(Cl)cc(Cl)c3)[nH]c2-c2ccc(OC)cc2)cc1 [Compound T37, N^1-{2-[4,5-Bis(4-methoxyphenyl)-1H-imidazol-2-ylsulfanyl]ethyl}-3,5-dichlorobenzamide]
IC50 [4]: 0.52 µM

COc1ccc(-c2nc(SCCNC(=O)c3ccc(F)cc3)[nH]c2-c2ccc(OC)cc2)cc1 [Compound T38, N^1-{2-[4,5-Bis(4-methoxyphenyl)-1H-imidazol-2-ylsufanyl]ethyl}-4-fluorobenzamide]
IC50 [5]: 0.251 µM

COc1ccc(-c2nc(SCCNC(=O)c3ccc(C#N)cc3)[nH]c2-c2ccc(OC)cc2)cc1 [Compound T39, N^1-{2-[4,5-Bis(4-methoxyphenyl)-1H-imidazol-2ylsulfanyl]ethyl}-4-cyanobenzamide]
IC50 [5]: 0.141 µM

COc1ccc(-c2nc(SCCNC(=O)c3ccc([N+](=O)[O-])cc3)[nH]c2-c2ccc(OC)cc2)cc1 [Compound T40, N^1-{2-[4,5-Bis(4-methoxyphenyl)-1H-imidazol-2-ylsufanyl]ethyl}-4-nitro-benzamide]
IC50 [4]: 0.081 µM

COc1ccc(-c2nc(SCCNC(=O)c3ccccc3[N+](=O)[O-])[nH]c2-c2ccc(OC)cc2)cc1 [Compound T41, N^1-{2-[4,5-Bis(4-methoxyphenyl)-1H-imidazol-2-ylsulfanyl]ethyl}-2-nitro-benzamide]
IC50 [5]: 0.17 µM

COc1ccc(-c2nc(SCCNC(=O)c3ccc(C(F)(F)F)cc3)[nH]c2-c2ccc(OC)cc2)cc1 [Compound T42, N^1-{2-[4,5-Bis(4-methoxyphenyl)-1H-imidazol-2-ylsufanyl]ethyl}-4-(tri-fluoromethyl)benzamide]
IC50 [5]: 0.324 µM

COc1ccc(-c2nc(SCCNC(=O)c3cccc(C(F)(F)F)c3)[nH]c2-c2ccc(OC)cc2)cc1 [Compound T43, N^1-{2-[4,5-Bis(4-methoxyphenyl)-1H-imidazol-2-ylsufanyl]ethyl}-3-(tri-fluoromethyl)benzamide]
IC50 [5]: 0.1 µM

COc1ccc(-c2nc(SCCNC(=O)c3cc(C(F)(F)F)cc(C(F)(F)F)c3)[nH]c2-c2ccc(OC)cc2)cc1 [Compound T44, N^1-{2-[4,5-Bis(4-methoxyphenyl)-1H-imidazol-2-ylsufanyl]ethyl}-3,5-bis-(trifluoromethyl)benzamide]
IC50 [4]: 0.52 µM

COc1ccc(C(=O)NCCSc2nc(-c3ccc(OC)cc3)c(-c3ccc(OC)cc3)[nH]2)cc1 [Compound T45, N^1-{2-[4,5-Bis(4-methoxyphenyl)-1H-imidazol-2-ylsufanyl]ethyl}-4-methoxybenzamide]
IC50 [5]: 1 µM
